Where “and” joins values, the source holds several entries; their conditions need not be identical. Equal entries are not always repeated.
What was measured:
Melanocortin receptor 3 = Melanocortin receptor 3 (Homo sapiens, UniProt P41968)
Motilin receptor = Motilin receptor (Homo sapiens, UniProt O43193)
[1] = target: Neuronal acetylcholine receptor subunit alpha-4 (Homo sapiens, UniProt P43681)
[2] = target: T1, Alpha-1A adrenergic receptor (Homo sapiens, UniProt P35348); assay type: functional, cell-based
T1 sequence (P35348 whole entry): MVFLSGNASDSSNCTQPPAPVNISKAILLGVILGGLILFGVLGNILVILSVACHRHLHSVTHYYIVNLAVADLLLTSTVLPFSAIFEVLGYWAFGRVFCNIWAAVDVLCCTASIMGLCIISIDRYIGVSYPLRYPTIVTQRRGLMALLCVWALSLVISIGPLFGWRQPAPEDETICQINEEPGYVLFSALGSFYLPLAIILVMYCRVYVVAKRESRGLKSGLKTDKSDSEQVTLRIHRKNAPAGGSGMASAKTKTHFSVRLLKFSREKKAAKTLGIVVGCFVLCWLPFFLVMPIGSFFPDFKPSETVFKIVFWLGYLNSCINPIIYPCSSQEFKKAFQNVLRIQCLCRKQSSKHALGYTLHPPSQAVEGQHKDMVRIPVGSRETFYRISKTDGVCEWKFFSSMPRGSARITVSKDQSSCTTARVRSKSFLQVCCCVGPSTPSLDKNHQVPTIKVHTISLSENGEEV

Adenosine receptor A2a = Adenosine receptor A2a (Homo sapiens, UniProt P29274)
Sequence of Adenosine receptor A2a (P29274 whole entry): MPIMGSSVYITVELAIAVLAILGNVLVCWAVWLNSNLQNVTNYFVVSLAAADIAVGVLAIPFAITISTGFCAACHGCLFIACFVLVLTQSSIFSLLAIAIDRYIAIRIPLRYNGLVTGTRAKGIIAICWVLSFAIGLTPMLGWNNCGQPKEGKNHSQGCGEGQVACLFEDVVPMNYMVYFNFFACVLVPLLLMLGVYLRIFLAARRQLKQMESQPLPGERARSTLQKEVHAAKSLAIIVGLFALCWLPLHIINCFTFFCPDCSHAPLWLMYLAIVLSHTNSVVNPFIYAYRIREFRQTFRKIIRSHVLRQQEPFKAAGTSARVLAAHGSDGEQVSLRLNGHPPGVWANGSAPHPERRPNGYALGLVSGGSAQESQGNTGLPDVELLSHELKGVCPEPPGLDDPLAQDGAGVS

[3] = target: T2, Neuropeptide Y receptor type 1 (Homo sapiens, UniProt P25929)
T2 sequence (P25929 whole entry): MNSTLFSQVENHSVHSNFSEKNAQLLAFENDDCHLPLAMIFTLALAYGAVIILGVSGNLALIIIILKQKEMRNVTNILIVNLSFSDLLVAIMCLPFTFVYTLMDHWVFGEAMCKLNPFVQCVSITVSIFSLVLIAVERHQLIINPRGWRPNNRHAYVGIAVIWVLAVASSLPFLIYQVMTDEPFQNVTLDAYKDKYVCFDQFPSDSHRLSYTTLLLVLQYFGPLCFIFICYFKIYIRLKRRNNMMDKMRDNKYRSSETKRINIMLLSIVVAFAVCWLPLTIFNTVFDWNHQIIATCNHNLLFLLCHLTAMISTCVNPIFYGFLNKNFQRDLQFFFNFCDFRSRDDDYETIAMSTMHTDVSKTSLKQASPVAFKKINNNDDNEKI

[4] = target: T3, Alpha-2A adrenergic receptor (Homo sapiens, UniProt P08913)
T3 sequence (P08913 whole entry): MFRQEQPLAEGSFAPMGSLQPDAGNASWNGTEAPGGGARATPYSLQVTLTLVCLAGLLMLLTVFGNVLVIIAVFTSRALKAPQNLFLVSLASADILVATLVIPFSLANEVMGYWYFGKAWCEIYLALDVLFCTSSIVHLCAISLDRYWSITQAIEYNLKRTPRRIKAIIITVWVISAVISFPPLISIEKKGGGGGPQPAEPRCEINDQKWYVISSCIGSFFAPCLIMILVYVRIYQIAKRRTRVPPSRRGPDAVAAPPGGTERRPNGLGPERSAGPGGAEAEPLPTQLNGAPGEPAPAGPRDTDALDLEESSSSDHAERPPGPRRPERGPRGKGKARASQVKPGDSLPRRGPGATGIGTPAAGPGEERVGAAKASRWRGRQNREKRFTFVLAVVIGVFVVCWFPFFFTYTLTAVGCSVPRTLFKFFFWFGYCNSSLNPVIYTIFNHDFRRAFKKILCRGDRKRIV

[5] = target: 3',5'-cyclic-AMP phosphodiesterase 4A (Homo sapiens, UniProt P27815); assay type: functional
Sequence of 3',5'-cyclic-AMP phosphodiesterase 4A (P27815 whole entry): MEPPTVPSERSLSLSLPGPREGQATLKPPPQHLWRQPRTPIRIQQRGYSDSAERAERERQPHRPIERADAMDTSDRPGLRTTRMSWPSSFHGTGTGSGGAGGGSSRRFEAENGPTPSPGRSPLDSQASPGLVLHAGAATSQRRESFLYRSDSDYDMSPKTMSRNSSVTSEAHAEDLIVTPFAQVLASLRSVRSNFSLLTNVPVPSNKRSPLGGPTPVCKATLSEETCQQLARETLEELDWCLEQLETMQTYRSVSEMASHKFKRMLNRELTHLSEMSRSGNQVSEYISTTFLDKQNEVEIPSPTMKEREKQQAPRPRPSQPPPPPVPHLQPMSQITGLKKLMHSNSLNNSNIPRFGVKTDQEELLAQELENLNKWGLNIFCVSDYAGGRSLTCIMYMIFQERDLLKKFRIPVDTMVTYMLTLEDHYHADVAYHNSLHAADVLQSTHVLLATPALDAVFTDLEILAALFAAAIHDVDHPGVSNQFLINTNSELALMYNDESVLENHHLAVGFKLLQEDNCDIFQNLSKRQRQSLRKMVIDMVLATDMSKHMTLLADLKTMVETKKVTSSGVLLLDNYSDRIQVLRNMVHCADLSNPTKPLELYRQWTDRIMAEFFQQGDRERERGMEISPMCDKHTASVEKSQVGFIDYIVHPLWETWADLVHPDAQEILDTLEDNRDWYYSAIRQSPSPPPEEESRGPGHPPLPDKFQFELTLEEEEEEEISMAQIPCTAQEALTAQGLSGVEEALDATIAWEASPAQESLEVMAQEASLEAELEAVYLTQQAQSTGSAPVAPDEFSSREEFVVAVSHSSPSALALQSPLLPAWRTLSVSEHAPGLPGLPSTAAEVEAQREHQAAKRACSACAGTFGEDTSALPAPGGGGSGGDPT
Also: assay procedure not described here.

Sequence of Motilin receptor (O43193 whole entry): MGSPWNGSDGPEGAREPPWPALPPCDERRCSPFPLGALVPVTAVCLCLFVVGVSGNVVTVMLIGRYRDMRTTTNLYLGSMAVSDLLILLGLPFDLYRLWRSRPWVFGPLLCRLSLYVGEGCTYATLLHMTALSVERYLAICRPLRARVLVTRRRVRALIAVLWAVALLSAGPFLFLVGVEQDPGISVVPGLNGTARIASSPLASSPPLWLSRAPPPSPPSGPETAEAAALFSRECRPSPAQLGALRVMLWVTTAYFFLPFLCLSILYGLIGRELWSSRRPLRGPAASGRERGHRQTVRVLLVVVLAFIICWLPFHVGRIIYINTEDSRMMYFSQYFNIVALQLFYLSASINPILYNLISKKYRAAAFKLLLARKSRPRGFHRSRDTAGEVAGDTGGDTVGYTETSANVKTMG
Sequence of Melanocortin receptor 3 (P41968 whole entry): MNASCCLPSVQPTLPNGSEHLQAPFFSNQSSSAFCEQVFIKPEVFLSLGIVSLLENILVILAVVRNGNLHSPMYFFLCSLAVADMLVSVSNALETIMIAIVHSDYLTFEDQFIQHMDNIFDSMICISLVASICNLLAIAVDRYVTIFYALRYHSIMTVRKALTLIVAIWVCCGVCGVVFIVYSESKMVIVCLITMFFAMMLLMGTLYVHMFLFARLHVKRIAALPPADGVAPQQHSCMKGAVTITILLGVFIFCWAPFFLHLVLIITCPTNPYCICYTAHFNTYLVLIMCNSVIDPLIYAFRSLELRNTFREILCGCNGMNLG
Sequence of Neuronal acetylcholine receptor subunit alpha-4 (P43681 whole entry): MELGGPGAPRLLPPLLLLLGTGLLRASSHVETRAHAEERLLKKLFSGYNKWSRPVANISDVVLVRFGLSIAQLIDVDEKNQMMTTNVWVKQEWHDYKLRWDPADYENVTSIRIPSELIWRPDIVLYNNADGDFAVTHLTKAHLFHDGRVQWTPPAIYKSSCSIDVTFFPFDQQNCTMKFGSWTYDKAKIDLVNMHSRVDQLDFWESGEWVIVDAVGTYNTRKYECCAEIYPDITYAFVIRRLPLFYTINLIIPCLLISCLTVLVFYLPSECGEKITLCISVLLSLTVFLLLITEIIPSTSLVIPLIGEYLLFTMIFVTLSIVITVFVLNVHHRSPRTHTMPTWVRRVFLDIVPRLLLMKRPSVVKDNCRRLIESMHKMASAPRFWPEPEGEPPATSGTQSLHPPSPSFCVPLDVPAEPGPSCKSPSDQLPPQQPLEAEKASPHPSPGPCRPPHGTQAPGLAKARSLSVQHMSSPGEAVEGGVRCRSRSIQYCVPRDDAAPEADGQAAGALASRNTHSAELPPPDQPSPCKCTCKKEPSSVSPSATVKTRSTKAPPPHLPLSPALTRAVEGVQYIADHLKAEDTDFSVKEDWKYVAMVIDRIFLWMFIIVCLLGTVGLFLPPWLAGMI

Structure (SMILES) | AC50 (Melanocortin receptor 3) [µM] | AC50 (Motilin receptor) | AC50 [1] [µM] | AC50 [2] [µM] | AC50 (Adenosine receptor A2a) [µM] | AC50 ([3]; read-out: AC50) [µM] | AC50 [4] [µM] | AC50 [5] [µM] | AC50 [3] [µM]
O=C1C(CC[S+]([O-])c2ccccc2)C(=O)N(c2ccccc2)N1c1ccccc1 (stereo unspecified) [SULFINPYRAZONE] | > 10 | > 10 µM | > 10 | > 30 | > 10 | > 10 | – | – | –
CN(C)CCC[C@@]1(c2ccc(F)cc2)OCc2cc(C#N)ccc21 [ESCITALOPRAM] | > 30 | > 30 µM | > 30 | – | > 30 | > 30 | – | – | –
COc1cc2nc(N3CCN(C(=O)C4CCCO4)CC3)nc(N)c2cc1OC (stereo unspecified) [TERAZOSIN] | > 30 | > 10 µM | > 10 | – | > 30 | > 30 | 11.8 | > 30 | –
Nc1ccc(S(=O)(=O)Nc2nccs2)cc1 [SULFATHIAZOLE] | > 30 | > 10 µM | > 10 | > 30 | > 30 | > 30 | – | – | –
CC(C)N(CCC(C(N)=O)(c1ccccc1)c1ccccn1)C(C)C (stereo unspecified) [DISOPYRAMIDE] | > 30 | > 30 µM | > 30 | > 30 | > 30 | > 30 | – | – | –
O=C1CCc2cc(OCCCCc3nnnn3C3CCCCC3)ccc2N1 [CILOSTAZOL] | > 30 | > 30 µM | > 30 | > 30 | > 30 | > 30 | – | – | –
C[C@@H](NCCCc1cccc(C(F)(F)F)c1)c1cccc2ccccc12 | 13 | 22 µM | > 1 | > 30 | > 30 | > 10 | – | – | –
C=C[C@H]1C[N@@]2CC[C@H]1C[C@@H]2[C@@H](O)c1ccnc2ccc(OC)cc12 [QUINIDINE] | > 30 | > 10 µM | – | – | > 30 | > 30 | – | – | –
C[C@H]1c2cccc(O)c2C(=O)C2=C(O)[C@]3(O)C(=O)C(C(N)=O)=C(O)[C@@H](N(C)C)[C@@H]3[C@@H](O)[C@@H]21 [DOXYCYCLINE] | > 30 | > 10 µM | > 10 | > 30 | > 30 | > 30 | – | – | –
CO[C@H]1/C=C/O[C@@]2(C)Oc3c(C)c(O)c4c(O)c(c(/C=N/N5CCN(C)CC5)c(O)c4c3C2=O)NC(=O)/C(C)=C\C=C\[C@H](C)[C@H](O)[C@@H](C)[C@@H](O)[C@@H](C)[C@H](OC(C)=O)[C@@H]1C [RIFAMPIN] | > 30 | > 30 µM | 22 | > 30 | 13 | 22.5 | – | – | –
C=CC[C@@H]1/C=C(\C)C[C@H](C)C[C@H](OC)[C@H]2O[C@@](O)(C(=O)C(=O)N3CCCC[C@H]3C(=O)O[C@H](/C(C)=C/[C@@H]3CC[C@@H](O)[C@H](OC)C3)[C@H](C)[C@@H](O)CC1=O)[C@H](C)C[C@@H]2OC [TACROLIMUS ANHYDROUS] | > 30 | 9.44 µM and > 10 µM | > 30 | > 30 | > 30 | > 30 | – | – | –
C[C@]12C=CC(=O)N[C@@H]1CC[C@@H]1[C@@H]2CC[C@]2(C)[C@@H](C(=O)Nc3cc(C(F)(F)F)ccc3C(F)(F)F)CC[C@@H]12 [DUTASTERIDE] | > 10 | > 10 µM | > 10 | > 30 | > 10 | > 10 | – | – | –
COc1ccccc1Oc1c(NS(=O)(=O)c2ccc(C(C)(C)C)cc2)nc(-c2ncccn2)nc1OCCO [BOSENTAN] | > 30 | > 10 µM | > 30 | > 30 | > 30 | > 30 | – | – | –
CCN1CCN(Cc2ccc(Nc3ncc(F)c(-c4cc(F)c5nc(C)n(C(C)C)c5c4)n3)nc2)CC1 [ABEMACICLIB] | > 30 | > 30 µM | > 30 | > 30 | > 30 | – | – | – | –
COc1ccc(CC2c3cc(OC)c(OC)cc3CC[N+]2(C)CCC(=O)OCCCCCOC(=O)CC[N+]2(C)CCc3cc(OC)c(OC)cc3C2Cc2ccc(OC)c(OC)c2)cc1OC (stereo unspecified) | > 30 | > 30 µM | 3.63 | > 30 | > 30 | > 30 | – | – | –
N[C@@H](CC(=O)N1CCn2c(nnc2C(F)(F)F)C1)Cc1cc(F)c(F)cc1F [SITAGLIPTIN] | > 30 | > 30 µM | > 30 | > 30 | > 30 | > 10 | – | – | –
CC(C(=O)O)c1ccc2c(c1)[nH]c1ccc(Cl)cc12 (stereo unspecified) [CARPROFEN] | > 30 | > 30 µM | > 30 | – | > 30 | > 10 | – | – | –
CN1C[C@H](C(=O)N[C@]2(C)O[C@@]3(O)[C@@H]4CCCN4C(=O)[C@H](Cc4ccccc4)N3C2=O)C=C2c3cccc4[nH]cc(c34)C[C@H]21 [ERGOTAMINE] | > 30 | > 30 µM | > 30 | 3.1 | > 30 | – | – | – | –
COc1ccccc1OCCNCC(O)COc1cccc2[nH]c3ccccc3c12 (stereo unspecified) [CARVEDILOL] | 28.8 | 7.61 µM | > 30 | > 30 | > 30 | 25.3 | – | – | –
C[C@@H](Oc1cc(-c2cnn(C3CCNCC3)c2)cnc1N)c1c(Cl)ccc(F)c1Cl [CRIZOTINIB] | 19.9 | 16 µM | – | – | > 30 | 8.44 | – | – | –
CN(C)CCc1c[nH]c2ccc(Cn3cncn3)cc12 [RIZATRIPTAN] | > 30 | > 10 µM | > 10 | > 30 | > 30 | > 30 | – | – | –
O=C1CN(/N=C/c2ccc(-c3ccc([N+](=O)[O-])cc3)o2)C(O)=N1 [DANTROLENE] | > 10 | > 10 µM | > 10 | – | > 30 | > 10 | – | – | –
CC(N)C12CC3CC(CC(C3)C1)C2 (stereo unspecified) [RIMANTADINE] | > 10 | > 10 µM | > 10 | – | > 10 | > 10 | – | – | –
CC(C)c1nc(N(C)S(C)(=O)=O)nc(-c2ccc(F)cc2)c1/C=C/[C@@H](O)C[C@@H](O)CC(=O)O [ROSUVASTATIN] | > 30 | > 30 µM | > 30 | > 30 | > 30 | > 30 | – | – | –
C[C@H](CCC(=O)O)[C@H]1CC[C@H]2[C@@H]3[C@@H](O)C[C@@H]4C[C@H](O)CC[C@]4(C)[C@H]3CC[C@]12C [URSODIOL] | > 30 | > 30 µM | > 30 | > 30 | > 30 | – | – | – | –
CC(C)(C)NCC(O)c1cc(O)cc(O)c1 (stereo unspecified) [TERBUTALINE] | > 30 | > 30 µM | > 30 | – | > 30 | > 30 | – | – | –
CN(C)CC[C@@H](c1ccc(Cl)cc1)c1ccccn1 [DEXCHLORPHENIRAMINE] | > 30 | > 30 µM | > 30 | > 30 | > 30 | > 30 | – | – | –
CC(S)C(=O)NCC(=O)O (stereo unspecified) [TIOPRONIN] | > 30 | > 30 µM | > 30 | > 30 | > 30 | – | – | – | –
CCN(CC)CCNC(=O)c1c(C)[nH]c(/C=C2\C(=O)Nc3ccc(F)cc32)c1C [SUNITINIB] | 7.8 | 7.3 µM | 7.3 | – | 5.3 | – | – | – | 6.9

Reference: ChEMBL document CHEMBL5291721, “A preclinical secondary pharmacology resource illuminates target-adverse drug reaction associations of marketed drugs” (Nat Commun, 2023)
